Assay results: PubChem BioAssay AID2060483 (Molecular Pharmacology Branch, DTP, NCI, 2025)

Test system: K24384-001-R-PDC complex spheroids, viability
Assay: Anticancer human tumor K24384-001-R-PDC patient-derived pancreatic adenocarcinoma cell line growth inhibition [GQUAD]
Conditions: for IC50: curve of first compound; for viability, T/C: stronger effect = lower value
Description: DNA G-quadruplex Stabilizer Agents in Combinations in Complex Spheroids
A high-throughput screen of multi-cell type tumor spheroids was designed to identify active combinations of DNA G-quadruplex stabilizer agents and targeted small molecules. Complex spheroids include a stromal component modeled by human endothelial cells (HUVEC) and fibroblasts modeled by human mesenchymal stem cells (MSCs). The concentration ranges selected for each drug and investigational agent were based upon clinically achievable concentrations if the clinical Cmax of the agent was known.
Compounds. The drugs and investigational agents: pidnarulex (CX-5461; NSC782164), APTO-253 (NSC789042), BRACO-19 (NSC847499), peposertib (NSC802822), ceralasertib (NSC780249), elimusertib (NSC800525), camonsertib (NSC841442), AZD-1390 (NSC803789), olaparib (NSC753686), talazoparib (NSC767125), ART-558 (NSC835418), sotorasib (NSC818433), MRTX-1133 (NSC836407), SN-38 (NSC673596), topotecan (NSC609699), etoposide (NSC141540), doxorubicin (NSC123127), gemcitabine (NSC613327), 5-fluorouracil (NSC19893), paclitaxel (NSC125973), vemurafenib (NSC761431), panobinostat (NSC761190), R-306465 (JNJ-16241199; NSC773264), adavosertib (NSC754352), TP-3654 (NSC805149), carboplatin (NSC241240), KSQ-4279 (NSC840948), and staurosporine (NSC755774) were obtained from the National Cancer Institute (NCI) Developmental Therapeutics Program Chemical Repository (34). The FDA-approved anticancer drug set is available from the NCI Developmental Therapeutics Program. […] The stock solutions were prepared in dimethyl sulfoxide (DMSO, Sigma-Aldrich, St. Louis, MO, cat. D2650) at 800-fold the tested concentration and stored at -70 degrees C prior to their use. All drugs and investigational agents were tested over a range starting from a high concentration at or near the clinical Cmax and decreasing in half-log increments. If the clinical Cmax for an agent had not been determined, the highest concentration tested was 10 microM.
2.3 Cell Culture. All cells were maintained in an incubator at 37 degrees C and 5% CO2 with 95% humidity. The PDC lines were cultured according to standard operating procedures established by the NCI PDMR. All PDCs were thawed and cultured in Matrigel-coated flasks prepared with a working solution of 1X Ham's F-12 nutrient mix, without supplementation (Invitrogen, cat. 11765054), 100 U/mL penicillin-streptomycin (Invitrogen, cat. 15140122), and 2.5% Matrigel (Corning Inc., cat. 354248) for the first three passages. The 857933-349-R-J2-PDC line was cultured in 6C/Colon 1B media, which includes advanced DMEM/F-12 (Thermo Fisher Scientific, cat. 12634028), 10 mM HEPES (Thermo Fisher Scientific, cat. 15630080), 1X GlutaMAX supplement (Thermo Fisher Scientific, cat. 35050061), 0.1 mg/mL primocin (InvivoGen, cat. ant-pm-2), 10% defined fetal bovine serum, heat inactivated (HyClone Laboratories Inc., cat. SH30070.03HI), 50% L-WRN conditioned media (ATCC, cat. CRL-3276), 1.25 mM N-Acetyl-L-cysteine (Sigma-Aldrich, cat. A9165), 10 mM nicotinamide (Sigma-Aldrich, cat. N0636), 1X B-27 supplement (Thermo Fisher Scientific, cat. 17504044), 1X N-2 supplement (Thermo Fisher Scientific, cat. 17502048), 10 microM Y-27632 dihydrochloride (Tocris Bioscience, cat. 1254), and 50 ng/mL human EGF recombinant protein (Thermo Fisher Scientific, cat. PHG0311). The 485176-168-R4-J1-PDC line was cultured in Panc media, which includes all 6C/Colon 1B media components plus 100 ng/mL human FGF-10 (Thermo Fisher Scientific, cat. 100-26), 500 nM SB-431542 (Selleckchem, cat. S1067), and gastrin (Tocris, cat. 3006).
[…]

[1] = second compound 0.0316 µM, first compound 0.0316 µM
[2] = second compound 0.0316 µM, first compound 0.1 µM
[3] = second compound 0.0316 µM, first compound 0.316 µM
[4] = second compound 0.0316 µM, first compound 1 µM
[5] = second compound 0.0316 µM, first compound 3.16 µM
[6] = second compound 0.0316 µM, first compound 10 µM
[7] = second compound 0.1 µM, first compound 0.0316 µM
[8] = second compound 0.1 µM, first compound 0.1 µM
[9] = second compound 0.1 µM, first compound 0.316 µM
[10] = second compound 0.1 µM, first compound 1 µM
[11] = second compound 0.1 µM, first compound 3.16 µM
[12] = second compound 0.1 µM, first compound 10 µM
[13] = second compound 0.316 µM, first compound 0.0316 µM
[14] = second compound 0.316 µM, first compound 0.1 µM
[15] = second compound 0.316 µM, first compound 0.316 µM
[16] = second compound 0.316 µM, first compound 1 µM
[17] = second compound 0.316 µM, first compound 3.16 µM
[18] = second compound 0.316 µM, first compound 10 µM
[19] = second compound 1 µM, first compound 0.0316 µM
[20] = second compound 1 µM, first compound 0.1 µM
[21] = second compound 1 µM, first compound 0.316 µM
[22] = second compound 1 µM, first compound 1 µM
[23] = second compound 1 µM, first compound 3.16 µM
[24] = second compound 1 µM, first compound 10 µM
[25] = second compound 3.16 µM, first compound 0.0316 µM
[26] = second compound 3.16 µM, first compound 0.1 µM
[27] = second compound 3.16 µM, first compound 0.316 µM
[28] = second compound 3.16 µM, first compound 1 µM
[29] = second compound 3.16 µM, first compound 3.16 µM
[30] = second compound 3.16 µM, first compound 10 µM
[31] = second compound 10 µM, first compound 0.0316 µM
[32] = second compound 10 µM, first compound 0.1 µM
[33] = second compound 10 µM, first compound 0.316 µM
[34] = second compound 10 µM, first compound 1 µM
[35] = second compound 10 µM, first compound 3.16 µM
[36] = second compound 10 µM, first compound 10 µM
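Note: spheroids exposed to compounds for seven days.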

Question: Which results are given for `CC(C)n1c(=O)n(C)c2cnc3cc(F)c(-c4ccc(OCCCN5CCCCC5)nc4)cc3c21` + CN(C)c1ccc(Nc2c3ccc(NC(=O)CCN4CCCC4)cc3nc3cc(NC(=O)CCN4CCCC4)ccc23)cc1?
Answer: IC50 (second compound 0.0316 µM): > 10000 nM; IC50 (second compound 0.1 µM): > 10000 nM; IC50 (second compound 0.316 µM): > 10000 nM; IC50 (second compound 1 µM): > 10000 nM; IC50 (second compound 3.16 µM): 9510 nM; IC50 (second compound 10 µM): 622 nM; viability, T/C [1]: 97.1%; viability, T/C [2]: 82.6%; viability, T/C [3]: 109%; viability, T/C [4]: 116%; viability, T/C [5]: 119%; viability, T/C [6]: 84.1%; viability, T/C [7]: 85.7%; viability, T/C [8]: 101%; viability, T/C [9]: 121%; viability, T/C [10]: 99.4%; viability, T/C [11]: 122%; viability, T/C [12]: 79%; viability, T/C [13]: 80.5%; viability, T/C [14]: 97.2%; viability, T/C [15]: 109%; viability, T/C [16]: 110%; viability, T/C [17]: 129%; viability, T/C [18]: 86.9%; viability, T/C [19]: 77.9%; viability, T/C [20]: 88.7%; viability, T/C [21]: 92.8%; viability, T/C [22]: 118%; viability, T/C [23]: 109%; viability, T/C [24]: 67.3%; viability, T/C [25]: 90.2%; viability, T/C [26]: 89.2%; viability, T/C [27]: 105%; viability, T/C [28]: 95.7%; viability, T/C [29]: 78.2%; viability, T/C [30]: 48.7%; viability, T/C [31]: 69.8%; viability, T/C [32]: 70.5%; viability, T/C [33]: 55.9%; viability, T/C [34]: 44.7%; viability, T/C [35]: 31%; viability, T/C [36]: 21.5%

Question: What does the source list for `CC1COCCN1c1cc(C2(O)CC3CCC(C2)O3)c2cnn(-c3ccn[nH]3)c2n1` (stereo unspecified) + CN(C)c1ccc(Nc2c3ccc(NC(=O)CCN4CCCC4)cc3nc3cc(NC(=O)CCN4CCCC4)ccc23)cc1?
Answer: IC50 (second compound 0.0316 µM): 103 nM; IC50 (second compound 0.1 µM): 74.6 nM; IC50 (second compound 0.316 µM): 74.3 nM; IC50 (second compound 1 µM): 68.6 nM; IC50 (second compound 3.16 µM): 61.6 nM; IC50 (second compound 10 µM): 119 nM; viability, T/C [1]: 56.5%; viability, T/C [2]: 52%; viability, T/C [3]: 33.5%; viability, T/C [4]: 23.8%; viability, T/C [5]: 25.4%; viability, T/C [6]: 14.3%; viability, T/C [7]: 68%; viability, T/C [8]: 43.9%; viability, T/C [9]: 29.6%; viability, T/C [10]: 25.1%; viability, T/C [11]: 26.6%; viability, T/C [12]: 15%; viability, T/C [13]: 70.3%; viability, T/C [14]: 44%; viability, T/C [15]: 24.6%; viability, T/C [16]: 26%; viability, T/C [17]: 27.2%; viability, T/C [18]: 14.1%; viability, T/C [19]: 62.8%; viability, T/C [20]: 45%; viability, T/C [21]: 27.1%; viability, T/C [22]: 27.7%; viability, T/C [23]: 27.3%; viability, T/C [24]: 13.3%; viability, T/C [25]: 63.2%; viability, T/C [26]: 40.5%; viability, T/C [27]: 24.9%; viability, T/C [28]: 27.9%; viability, T/C [29]: 24.9%; viability, T/C [30]: 12.9%; viability, T/C [31]: 76.2%; viability, T/C [32]: 48.5%; viability, T/C [33]: 35.7%; viability, T/C [34]: 32.5%; viability, T/C [35]: 25.4%; viability, T/C [36]: 12.3%

Question: What does the source list for `O=C(c1cc(Cc2n[nH]c(=O)c3ccccc23)ccc1F)N1CCN(C(=O)C2CC2)CC1` + CN(C)c1ccc(Nc2c3ccc(NC(=O)CCN4CCCC4)cc3nc3cc(NC(=O)CCN4CCCC4)ccc23)cc1?
Answer: IC50 (second compound 0.0316 µM): > 10000 nM; IC50 (second compound 0.1 µM): > 10000 nM; IC50 (second compound 0.316 µM): > 10000 nM; IC50 (second compound 1 µM): > 10000 nM; IC50 (second compound 3.16 µM): > 10000 nM; IC50 (second compound 10 µM): > 10000 nM; viability, T/C [1]: 91.5%; viability, T/C [2]: 87.2%; viability, T/C [3]: 103%; viability, T/C [4]: 85.3%; viability, T/C [5]: 94%; viability, T/C [6]: 65.3%; viability, T/C [7]: 98.4%; viability, T/C [8]: 97%; viability, T/C [9]: 102%; viability, T/C [10]: 82.5%; viability, T/C [11]: 78.7%; viability, T/C [12]: 76.3%; viability, T/C [13]: 82.2%; viability, T/C [14]: 90.1%; viability, T/C [15]: 102%; viability, T/C [16]: 81.2%; viability, T/C [17]: 87.8%; viability, T/C [18]: 72.2%; viability, T/C [19]: 85.3%; viability, T/C [20]: 103%; viability, T/C [21]: 97.1%; viability, T/C [22]: 108%; viability, T/C [23]: 92.9%; viability, T/C [24]: 71.2%; viability, T/C [25]: 89.5%; viability, T/C [26]: 90.6%; viability, T/C [27]: 92%; viability, T/C [28]: 100%; viability, T/C [29]: 86.5%; viability, T/C [30]: 62.2%; viability, T/C [31]: 86.4%; viability, T/C [32]: 89.5%; viability, T/C [33]: 94.6%; viability, T/C [34]: 91.2%; viability, T/C [35]: 86.2%; viability, T/C [36]: 61.4%
